Source: patent publication US10548865B1, “Compositions of citrulline” (Hubei Grand Biotechnology Co. Ltd., priority 2019, dated 2020)

System: mice
Assay: Loaded swimming test, exercise time to exhaustion
Type: in vivo
Settings: intragastric, 1 hour prior to test
Description: Adult (8-10 weeks) male ICR mice were used in this study and purchased from Beijing Vital River Laboratory Animal Technology Co., Ltd. All the mice were provided with a normal diet and water ad libitum. All procedures were approved by institutional guidelines and the Animal Care and Use Committee (Huazhong University of Science and Technology, Wuhan, China) of the university's animal core facility. The mice were group-housed under a 12 h light-dark cycle (lights on at 8:00 a.m.), at consistent humidity (50±5%), and ambient temperature (22˜24° C.).
The animals were bred with three mice per cage in the laboratory, and were acclimatized for 1 week before the experiments. The mice were grouped randomly for each experiment. The mice in each group were given the corresponding dose amino acid and the control group was treated with the equal volume of normal saline (NS) through intragastric administration. Loaded swimming experiments were performed to assess the acute effect of the amino acids on endurance one hour after the treatment
The NS injection were purchased from Beijing Pharmaceutical Group Co., Ltd. The amino acid powders were dissolved in NS and then were intragastric administration to mice by lavage needle (Beijing Vital River Laboratory Animal Technology Co., Ltd.).
Acute effects on endurance performance were assessed by loaded swimming test one hour after the amino acid treatment. The swimming exercise was carried out in a tank (diameter 120 cm) filled with fresh water to 30-cm depth at 24±2° C. A tin wire (⅛ of body weight) was attached on the tail of the mouse. […] The length of time each mouse kept swimming before exhaustion (exercise time to exhaustion) was recorded. At the end of the session, the mice were removed from the water, dried with paper towels, and placed back in their home cages.
Sixty mice were randomly divided into four groups (n=15 per group). Each of the four group were treated with NS, citrulline (200 mg/kg body weight), GABA (150 mg/kg body weight), and citrulline/GABA mixture (200 mg/kg+150 mg/kg) respectively. The results were summarized below (Table 2 and FIG. 1).
The methods used here are the same as in Example 1, but GABA (150 mg/kg) was replaced by taurine (200 mg/kg). The results were summarized below (Table 3 and FIG. 2).
The methods used here are the same as in Example 1. Sixty mice were randomly divided into four groups (n=15 per group). Each of the four group were treated with NS, citrulline (75 mg/kg body weight), taurine (25 mg/kg body weight), and citrulline taurine mixture (75 mg/kg+25 mg/kg) respectively. The results were summarized below (Table 4 and FIG. 3).

[1] = Example 2, citrulline 200 mg/kg, taurine 200 mg/kg, mixture 200 mg/kg+200 mg/kg
[2] = Example 3, lower doses, citrulline 75 mg/kg, taurine 25 mg/kg, mixture 75 mg/kg+25 mg/kg
[3] = Example 1, citrulline 200 mg/kg, GABA 150 mg/kg, mixture 200 mg/kg+150 mg/kg, male ICR mice

| Structure (SMILES) | Average Time (s), exercise time to exhaustion [1] | Increase of exercise time to exhaustion vs control [1] | Increase of exercise time to exhaustion vs control (Example 2, citrulline 200 mg/kg, taurine 200 mg/kg, mixture 200 mg/kg+200 mg/kg, listed as taurine) | Average Time (s), exercise time to exhaustion [2] | Increase of exercise time to exhaustion vs control [2] | Increase of exercise time to exhaustion vs control (Example 3, lower doses, citrulline 75 mg/kg, taurine 25 mg/kg, mixture 75 mg/kg+25 mg/kg, listed as taurine) | Average Time (s), exercise time to exhaustion [3] | Average Time (s), exercise time to exhaustion (Example 1, citrulline 200 mg/kg, GABA 150 mg/kg, mixture 200 mg/kg+150 mg/kg, male ICR mice, listed as citrulline) | Increase of exercise time to exhaustion vs control (Example 2, citrulline 200 mg/kg, taurine 200 mg/kg, mixture 200 mg/kg+200 mg/kg, listed as citrulline) | Increase of exercise time to exhaustion vs control (Example 3, lower doses, citrulline 75 mg/kg, taurine 25 mg/kg, mixture 75 mg/kg+25 mg/kg, listed as citrulline) |
| --- | --- | --- | --- | --- | --- | --- | --- | --- | --- | --- |
| NCCS(=O)(=O)O [Taurine, taurine] | 208 s | 23.6% | 23.6% | 181 s | 7.5% | 7.5% | – | – | – | – |
| NC(=O)NCCC[C@H](N)C(=O)O [Citrulline, L-citrulline] | 194.6 s | 15.6% | – | 207.7 s | 23.4% | – | 245.4 s | about 245.4 s | 15.6% | 23.4% |
| NCCCC(=O)O [GABA, gamma-aminobutyric acid, reference compound] | – | – | – | – | – | – | 216.8 s | – | – | – |
